{"source": "patent US12233070B2", "about": "“Methods for treating benzodiazepine misuse/use disorder” (University of M[…] Center, priority 2020, dated 2025)", "key": {"rhesus monkeys [1]": {"system": "rhesus monkeys", "test": "Conflict model of anxiolysis (mult FR, FR+PUN)", "format": "in vivo, rhesus monkey", "details": "i.v.; for Non-Suppressed, Mean responses/s (SEM) / Suppressed, Mean responses/s (SEM): N = 4 monkeys", "text": "The conflict procedure methodology includes a two-component multiple fixed-ratio, fixed-ratio plus punishment schedule (mult FR, FR+PUN). An important feature of this model is that it is highly predictive of clinically active doses in human subjects (Rowlett et al. 2006, Psychopharmacology 184: 201-11). One component of this schedule was associated with a distinctive visual stimulus (e.g., red light) and the other component was associated with a different stimulus (e.g., green light). In each component, completion of 10 responses (FR 10) produced a food pellet followed by a brief (10 sec) timeout period. The component ended following delivery of 5 food pellets or 5 min, whichever occurred first. A 10-min timeout period occurred before each of four cycles with two components (1 red, 1 green) per cycle. When performance in both components of the multiple schedule was stable, responding in one component was suppressed by superimposing a FR schedule of response-produced electric shock. Under the superimposed schedule, every nth response (n=15-25, adjusted for each monkey depending on individual performance) produced shock. Once responding was stable (at least three sessions in which suppressed responding was less than 50% of non-suppressed responding, with no upward or downward trend in response rates in either component), investigational compounds were administered i.v. during the extended timeout periods using a cumulative dosing technique. This technique allowed determination of a four-point dose-response function in a single session.\nTable 2 summarizes data for TPA023B in the conflict procedure (n=4 monkeys, 2 females and 2 males), with alprazolam as a positive control. Average responses when vehicle was administered was 2.2 in the non-suppressed component, decreased by ˜98% by shock presentation in the suppressed component (mean=0.05 responses). For non-suppressed responding, TPA023B had no effects on mean rates of responding or percent of control over a 100-fold dose range (0.01 to 1.0 mg/kg, i.v.). […] This effect was similar to that observed with 0.03 mg/kg, i.v., of alprazolam. A striking characteristic of TPA023B in this procedure is the lack of attenuation of rates of responding at higher doses."}, "rhesus monkeys [2]": {"system": "rhesus monkeys", "test": "Midazolam self-administration (PR) after TPA023B pretreatment", "format": "in vivo, rhesus monkey", "method": "To test this, we have trained monkeys to self-administer the short-acting conventional benzodiazepine midazolam (0.056 mg/kg/injection, i.v.) in the PR procedure, as described above. During test sessions, we initially kept the training dose of midazolam constant, and administered i.v. pretreatments of TPA023B (0.003, 0.01, 0.03, 0.1, 0.3 mg/kg, of vehicle) immediately prior to the beginning of the session. A key consideration for any pharmacotherapy, as well as interpretation of blockade of reinforcing effects generally, is the extent to which the blockade is specific to the drug target and not a generalized suppression of behavior, e.g., due to sedative-motor effects inhibiting the ability of the monkey to press the lever. Another possible confounding factor that would potentially result in blockade of drug taking is general sickness or perceptual alterations. In particular, appetite suppression would represent an undesirable side effect in a benzodiazepine addiction pharmacotherapy.\nTo further evaluate the extent to which attenuation of responding was due to pharmacological antagonism and to evaluate an exemplary range of effective doses, we evaluated single doses of TPA023B administered prior to sessions in which differing doses of midazolam were tested."}, "rhesus monkeys [3]": {"system": "rhesus monkeys", "test": "Food self-administration (PR) after TPA023B pretreatment", "format": "in vivo, rhesus monkey", "details": "up to 0.3 mg/kg TPA023B i.v. pretreatment; 2 pellets/delivery", "text": "To evaluate the extent to which suppression of lever-pressing behavior by TPA023B represents non-specific inhibition, we also tested food self-administration under the PR schedule. For these experiments, test sessions were scheduled similar to those with midazolam dose/vehicle, except that 2 food pellets (1-g BioServ flavored food pellets) were available as reinforcers rather than midazolam dose. All other aspects of the test was the same, including response requirements and TPA023B pretreatment conditions."}, "Sprague-Dawley rats [4]": {"system": "Sprague-Dawley rats", "test": "Pulmonary ventilation, whole body plethysmography", "format": "in vivo, rat", "details": "over the doses tested, i.p.; N=8 rats", "method": "We first assessed the effects of TPA023B, in comparison with alprazolam, using whole body plethysmography (WBP; DSI systems). For these studies, adult male Sprague-Dawley rats (n=8) were habituated to the chambers for 30 min. The chamber was then filled with 21% oxygen, sealed, and pressure fluctuation measured for 1 min. Next, the chamber was opened and the rats were injected with alprazolam or TPA023B, i.p., and placed into the sealed chamber for a 15 min pretreatment time. The chamber was again filled with 21% oxygen, and for 1 min, fluctuating pressure amounts were recorded to obtain tidal volume (lung capacity), breaths/minute, and minute volume (lung capacity per unit time)."}, "Sprague-Dawley rats [5]": {"system": "Sprague-Dawley rats", "test": "Precipitated withdrawal/acute dependence: responding 60 min after diazepam bolus", "format": "in vivo, rat", "details": "all doses tested, vs ligand alone; FIGS. 11A and 11B", "method": "Acute dependence can occur after single exposures to the benzodiazepine chlordiazepoxide, but not to an α2/3GABAA selective ligand (Fischer et al. 2013, Psychopharmacology 227: 347-54). Here, the extent to which TPA023B can precipitate withdrawal in rats following a single, large bolus dose of diazepam was studied. […] Once rates of responding were stable, doses of diazepam, the non-selective benzodiazepine antagonist flumazenil, and TPA023B were administered prior to the session."}, "[6]": {"target": "α5 subunit-containing GABAA receptors (Homo sapiens, UniProt P18507+P31644)", "sequence (P31644 32-462)": "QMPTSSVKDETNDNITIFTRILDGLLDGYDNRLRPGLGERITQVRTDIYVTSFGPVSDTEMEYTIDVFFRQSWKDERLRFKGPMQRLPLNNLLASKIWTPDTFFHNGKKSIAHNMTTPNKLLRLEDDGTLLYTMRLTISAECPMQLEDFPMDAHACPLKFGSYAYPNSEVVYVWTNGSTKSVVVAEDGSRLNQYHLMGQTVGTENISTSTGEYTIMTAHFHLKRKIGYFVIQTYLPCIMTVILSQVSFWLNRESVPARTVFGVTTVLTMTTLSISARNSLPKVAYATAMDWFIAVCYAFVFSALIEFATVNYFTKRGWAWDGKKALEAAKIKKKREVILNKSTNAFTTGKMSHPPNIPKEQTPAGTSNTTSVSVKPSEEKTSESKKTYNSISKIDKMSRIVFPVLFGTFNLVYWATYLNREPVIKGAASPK", "sequence (P18507 40-475)": "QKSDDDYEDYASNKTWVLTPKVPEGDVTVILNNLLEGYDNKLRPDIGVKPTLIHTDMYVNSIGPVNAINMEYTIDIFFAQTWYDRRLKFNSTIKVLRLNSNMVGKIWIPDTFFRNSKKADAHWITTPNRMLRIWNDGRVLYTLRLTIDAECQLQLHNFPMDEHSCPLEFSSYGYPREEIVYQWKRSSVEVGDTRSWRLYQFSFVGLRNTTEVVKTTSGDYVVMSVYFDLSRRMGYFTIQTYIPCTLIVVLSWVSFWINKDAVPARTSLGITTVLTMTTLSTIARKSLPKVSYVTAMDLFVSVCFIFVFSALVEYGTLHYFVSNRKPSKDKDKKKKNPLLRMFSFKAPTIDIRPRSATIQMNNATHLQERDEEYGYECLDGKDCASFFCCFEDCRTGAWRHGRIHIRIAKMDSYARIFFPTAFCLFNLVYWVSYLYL", "sequence (P28472 26-473 partner)": "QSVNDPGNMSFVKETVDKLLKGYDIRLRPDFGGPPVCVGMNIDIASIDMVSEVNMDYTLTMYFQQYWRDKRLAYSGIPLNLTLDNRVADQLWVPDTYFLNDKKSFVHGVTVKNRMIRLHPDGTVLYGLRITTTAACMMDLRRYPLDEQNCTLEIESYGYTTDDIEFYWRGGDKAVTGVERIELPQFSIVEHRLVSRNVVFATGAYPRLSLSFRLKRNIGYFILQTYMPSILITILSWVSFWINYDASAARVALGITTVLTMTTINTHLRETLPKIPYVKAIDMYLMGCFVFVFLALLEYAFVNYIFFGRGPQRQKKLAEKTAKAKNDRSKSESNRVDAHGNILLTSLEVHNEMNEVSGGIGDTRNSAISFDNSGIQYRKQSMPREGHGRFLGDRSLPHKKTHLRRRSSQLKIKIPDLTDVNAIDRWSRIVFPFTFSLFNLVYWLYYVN", "parameters": "key to Subtype α5: act as partial positive modulators for particular subtype combinations; none: zero efficacy (i.e., antagonism) at other subtypes", "details": "cited from earlier work"}, "[7]": {"parameters": "key to Pharmacokinetics: “poor” - low bioavailability and/or short half-life; “good” - potent with long half-life", "details": "in vivo; cited from earlier work"}, "[8]": {"system": "CNS benzodiazepine binding sites", "details": "rodents and primates; cited from earlier work"}, "[9]": {"system": "benzodiazepine binding sites", "details": "cited from earlier work"}, "rodent, squirrel monkey [10]": {"system": "rodent, squirrel monkey", "details": "rodent rotarod and chain-pulling, squirrel monkey lever pressing; cited from earlier work"}, "rodent, squirrel monkey [11]": {"system": "rodent, squirrel monkey", "details": "rodent and squirrel monkey models; cited from earlier work"}}, "note": "“Also recorded” adds a separate entry of the source. Marks after values point to notes of the source that are not given here.", "data": [{"smiles": "CC(C)(O)c1cnn2c(-c3ccc(F)c(-c4c(F)cccc4C#N)c3)cnc2n1", "note": "[TPA023B]", "values": [{"measurement": "Non-Suppressed, Mean responses/s (SEM)", "setting": "rhesus monkeys [1]; 0.01 mg/kg", "result": "2.0 (0.08) responses/s"}, {"measurement": "Suppressed, Mean responses/s (SEM)", "setting": "rhesus monkeys [1]; 0.01 mg/kg", "result": "0.03 (0.02) responses/s"}, {"measurement": "Non-Suppressed, Mean responses/s (SEM)", "setting": "rhesus monkeys [1]; 0.1 mg/kg", "result": "2.0 (0.15) responses/s"}, {"measurement": "Suppressed, Mean responses/s (SEM)", "setting": "rhesus monkeys [1]; 0.1 mg/kg", "result": "2.46 (0.40)* responses/s"}, {"measurement": "Non-Suppressed, Mean responses/s (SEM)", "setting": "rhesus monkeys [1]; 1.0 mg/kg", "result": "2.1 (0.97) responses/s"}, {"measurement": "Suppressed, Mean responses/s (SEM)", "setting": "rhesus monkeys [1]; 1.0 mg/kg", "result": "2.00 (0.75)* responses/s"}, {"measurement": "effect on non-suppressed responding (mean rates, percent of control)", "setting": "rhesus monkeys [1]; 100-fold dose range, 0.01 to 1.0 mg/kg", "result": "no effects"}, {"measurement": "effect on rates of suppressed responding (anti-conflict effect)", "setting": "rhesus monkeys [1]; reaching non-suppressed levels at 0.1 mg/kg", "result": "significantly enhanced"}, {"measurement": "effect on midazolam dose-response function", "setting": "rhesus monkeys [2]; TPA023B 0.01 mg/kg pretreatment", "result": "shifted the midazolam dose-response function to the right"}, {"measurement": "reduction of midazolam-maintained responding", "setting": "rhesus monkeys [2]; TPA023B 0.03 mg/kg i.v. pretreatment, midazolam 0.018 and 0.056 mg/kg/injection", "result": "> 50", "unit": "%"}, {"measurement": "midazolam self-administration, percent maximum", "setting": "rhesus monkeys [2]; all midazolam doses, FIG. 8", "result": "below 50%"}, {"measurement": "doses with both anti-conflict effects and blockade of midazolam self-administration", "setting": "rhesus monkeys [2]; conflict and self-administration data combined, FIG. 8", "result": "≥ 0.03", "unit": "mg/kg"}, {"measurement": "midazolam self-administration, % of maximum", "setting": "rhesus monkeys [2]; higher doses of TPA023B (above 0.01 mg/kg), even at higher midazolam doses", "result": "< 50", "unit": "%"}, {"measurement": "midazolam self-administration, percent maximum", "setting": "rhesus monkeys [2]; highest TPA023B dose, FIG. 8", "result": "below 25%"}, {"measurement": "effect on self-administration of midazolam", "setting": "rhesus monkeys [2]; pretreatment with 0.003 mg/kg TPA023B", "result": "did not attenuate"}, {"measurement": "effect on food-maintained responding", "setting": "rhesus monkeys [3]", "result": "did not alter"}, {"measurement": "any ventilatory parameter (breathing frequency, tidal volume, minute volume)", "setting": "Sprague-Dawley rats [4]", "result": "did not alter; also recorded: no effects"}, {"measurement": "rates of responding 60 min after 3.0 mg/kg diazepam (precipitated withdrawal)", "setting": "Sprague-Dawley rats [5]", "result": "did not alter rates of responding"}, {"measurement": "Subtype α5", "setting": "[6]", "result": "partial"}, {"measurement": "Pharmacokinetics", "setting": "[7]", "result": "good"}, {"measurement": "occupancy of CNS benzodiazepine binding sites at minimally-effective doses in anxiolysis assays", "setting": "[8]", "result": "61-88%"}, {"measurement": "occupancy of benzodiazepine binding sites", "setting": "[9]; 1.0 and 3.0 mg/kg", "result": "up to 95%"}, {"measurement": "occupancy of benzodiazepine binding sites in brain", "setting": "[9]; 3.0 and 10 mg/kg", "result": "≤ 95", "unit": "%"}, {"measurement": "sedation", "setting": "rodent, squirrel monkey [10]", "result": "minimally sedating"}, {"measurement": "anxiolytic-like effects", "setting": "rodent, squirrel monkey [11]", "result": "anxiolytic-like effects"}]}]}
